Results taken from US4731370A, “Pyridyl ester containing 1,4-dihydropyridine derivatives and salts thereof and pharmaceutical composition containing the same” (Toyama Chemical Co., Ltd., priority 1984, dated 1988).

system: vertebral artery blood flow of a dog; experiment: Vertebral artery blood flow increasing activity; type: in vivo, dog (mongrel); conditions: i.v., amount with same activity as 1 mg/kg (i.v.) papaverine hydrochloride, ratio to papaverine hydrochloride
Description: (§1) The compounds of this invention to be tested were used in the form of a hydrochloride.
The vertebral artery blood flow of a dog (mongrel, 12-22 kg, 2-3 heads per group) anesthetized with pentobarbital sodium (30 mg/kg, i.v.) was measured by means of an electromagnetic flow meter (MFV-2100 manufactured by Nihon Kohden Kogyo).
The test compounds 1, 3 and 10 were adjusted to a concentration of 1 mg/ml with distilled water, and then diluted with a saline solution to the desired concentrations, after which the thus diluted solutions were intravenously administered, and the test compounds 12, 15, 18, 19, 20, 24, 29, 30, 32 and 33 were formed into solutions in the same manner as in Item 1 above and then intravenously administered.

Going from `CC1=C(C(=O)OCCOC/C=C/c2ccc(Cc3cccnc3)cc2)C(c2cccc([N+](=O)[O-])c2)C(C(=O)OC(C)C)=C(C)N1` (centres unmarked) [compound 24] to `CCOC(=O)C1=C(C)NC(C)=C(C(=O)OCCCCOC/C(C)=C/c2ccc(Cc3cccnc3)cc2)C1c1cccc([N+](=O)[O-])c1` (centres unmarked) [compound 30], the Effect ratio rises from 286 to 397.

First: COC(=O)C1=C(C)NC(C)=C(C(=O)OCC(C)(C)COC/C(C)=C/c2ccc(Cc3cccnc3)cc2)C1c1cccc([N+](=O)[O-])c1 (centres unmarked) [compound 32]
Second: CCOC(=O)C1=C(C)NC(C)=C(C(=O)OCC(C)(C)COC/C(C)=C/c2ccc(Cc3cccnc3)cc2)C1c1cccc([N+](=O)[O-])c1 (centres unmarked) [compound 33]
The Effect ratio of the first is higher: 417 for the first, 333 for the second.

system: Thromboxane-Synthesizing Enzyme; experiment: Thromboxane-synthesizing enzyme-inhibitory activity (MDA production in platelet-rich plasma after oral dosing); type: in vivo, rat (Wistar strain); conditions: rat, 3 mg/kg, blood after one hour
Description: as §1
To a rat (Wistar strain, male, 300-350 g, 4 heads per group) which had been starved overnight was orally administered a test compound solution, and blood was collected from the abdominal aorta using citric acid after one hour. Two milliliters of a 1×10^9 /ml platelet-rich plasma (PRP) was preincubated at 37° C. for 2 minutes. Subsequently, 0.1 ml of 10 mM sodium archidonate was added, and the resulting mixture was subjected to reaction for 6 minutes, after which indomethacin was added thereto to terminate the reaction. The reaction mixture was subjected to deproteinization treatment and reacted with thiobarbituric acid (TBA) reagent, after which the reaction mixture was subjected to extraction with 3 ml of n-butanol. The resulting extract was subjected to colorimetry (λ=532 nm) to determine the amount of malondialdehyde (MDA) produced. As to the platelet-poor plasma (PPP) obtained from the same rat as above, the same procedure as above was repeated to determine the amount of MDA produced, and the difference between the two is indicated as MDA value. Comparing with the MDA values of the control group, the MDA production-inhibition (%) was determined.
The test compounds 1-9 were adjusted to the desired concentrations with water and the test compounds 11-33 and nicardipine were adjusted to a concentration of 5 mg/ml with an aqueous solution containing 10% of each of dimethyl sulfoxide and Cremophor and then diluted with water to the desired concentrations.

Going from `CCOC(=O)C1=C(C)NC(C)=C(C(=O)OCCN(C)C/C(C)=C/c2ccc(Cc3cccnc3)cc2)C1c1cccc([N+](=O)[O-])c1` (centres unmarked) [compound 4] to `CCOC(=O)C1=C(C)NC(C)=C(C(=O)OCC(C)COC/C(C)=C/c2ccc(Cc3cccnc3)cc2)C1c1cccc([N+](=O)[O-])c1` (centres unmarked) [compound 31], the MDA production-inhibition falls from 53.6% to 50.5%.

Compared with `CC1=C(C(=O)OCCN(C)C/C(C)=C/c2ccc(Cc3cccnc3)cc2)C(c2cccc(Cl)c2Cl)C(C(=O)OC(C)C)=C(C)N1` (centres unmarked) [compound 5], `CC1=C(C(=O)OCCN(C)C/C(C)=C/c2ccc(Cc3cccnc3)cc2)C(c2ccccc2C(F)(F)F)C(C(=O)OC(C)C)=C(C)N1` (centres unmarked) [compound 6] is higher in MDA production-inhibition: 57.9% for the first, 60.6% for the second.

First: CC1=C(C(=O)OCCN(C)C/C=C/c2ccc(Cn3ccnc3)cc2)C(c2cccc([N+](=O)[O-])c2)C(C(=O)OC(C)C)=C(C)N1 (centres unmarked) [compound 9]
Second: CCOC(=O)C1=C(C)NC(C)=C(C(=O)OCCOCCCc2ccc(Cn3ccnc3)cc2)C1c1cccc([N+](=O)[O-])c1 (centres unmarked) [compound 11]
The MDA production-inhibition of the first is higher: 47.2% for the first, 37.8% for the second.

Compared with `CCOC(=O)C1=C(C)NC(C)=C(C(=O)OCCOCCc2ccc(Cc3cccnc3)cc2)C1c1cccc([N+](=O)[O-])c1` (centres unmarked) [compound 27], `CCOC(=O)C1=C(C)NC(C)=C(C(=O)OCCSC/C=C/c2ccc(Cc3cccnc3)cc2)C1c1cccc([N+](=O)[O-])c1` (centres unmarked) [compound 28] is lower in MDA production-inhibition: 35.7% for the first, 31.2% for the second.

With `CCOC(=O)C1=C(C)NC(C)=C(C(=O)OCC(C)(C)COC/C(C)=C/c2ccc(Cc3cccnc3)cc2)C1c1cccc([N+](=O)[O-])c1` (centres unmarked) [compound 33] the MDA production-inhibition was 41.5%.

system: mouse pulmonary infraction model; experiment: Antithrombosis activity, mouse pulmonary infraction model, paralytic time-shortening (0.15 ml epinephrine/collagen); type: in vivo, mouse (ICR strain); conditions: 1 h, oral, 10 mg/kg, challenge after one hour, 10 mice, read-out: Paralytic time-shortening percentage
Description: as §1
Comparing the paralytic time of the control group, the paralytic time-shortening percentage due to the compound to be tested was determined.
(§2) The test compounds shown in Table 4 were adjusted to the desired concentrations with water, and the test compounds shown in Table 5 were adjusted to a concentration of 5 mg/ml with an aqueous solution containing 10% by volume of each of dimethyl sulfoxide and Cremophor, and then diluted with water to the desired concentrations.

Compared with `CCOC(=O)C1=C(C)NC(C)=C(C(=O)OCCN(C)C/C(C)=C/c2ccc(Cc3cccnc3)cc2)C1c1cccc([N+](=O)[O-])c1` (centres unmarked) [compound 4], `CC1=C(C(=O)OCCN(C)C/C(C)=C/c2ccc(Cc3cccnc3)cc2)C(c2cccc(Cl)c2Cl)C(C(=O)OC(C)C)=C(C)N1` (centres unmarked) [compound 5] is higher in inhibition in vivo at 10 mg/kg: 38.6% for the first, 93.9% for the second.

With `CC1=C(C(=O)OCCN(C)C/C(C)=C/c2ccc(Cc3cccnc3)cc2)C(c2ccccc2C(F)(F)F)C(C(=O)OC(C)C)=C(C)N1` (centres unmarked) [compound 6] the inhibition in vivo at 10 mg/kg was 87.9%.

system: mouse pulmonary infraction model; experiment: Antithrombosis activity, mouse pulmonary infraction model, prevention of death and paralysis (0.10 ml epinephrine/collagen); type: in vivo, mouse (ICR strain); conditions: 1 h; mouse, oral, 10 mg/kg, challenge after one hour; control 25.7%; read-out: Preventive percentage of death + paralysis for 10 minutes or more
Description: as §1
According to the G. DiMinno and M. J. Silver method [J. Pharmacol. Exp. Therap., 225 (1) 57-60 (1983)], a solution of the compound to be tested was orally administered to a mouse (ICR strain, male, 4 weeks old), and 0.15 ml of a mixed solution of epinephrine (100 μM) and collagen (150 μg/ml) was intravenously administered to the mouse after one hour, after which the paralytic time was measured. Comparing the paralytic time of the control group, the paralytic time-shortening percentage due to the compound to be tested was determined. The results obtained are shown in Table 4, in which the case where the paralytic time was 15 minutes was calculated as death.
Moreover, the same experiment was repeated, except that 0.10 ml of a mixed solution of epinephrine (100 μM) and collagen (150 μg/ml) was intravenously administered to the mouse and the effect of preventing the appearance of death and a case where the paralytic time was 10 minutes or more was checked and the results thereof are shown in Table 5.
as §2

Compared with `CCOC(=O)C1=C(C)NC(C)=C(C(=O)OCCOC/C(C)=C/c2ccc(Cc3cccnc3)s2)C1c1cccc([N+](=O)[O-])c1` (centres unmarked) [compound 21], `CCOC(=O)C1=C(C)NC(C)=C(C(=O)OCCOCCc2ccc(Cc3cccnc3)cc2)C1c1cccc([N+](=O)[O-])c1` (centres unmarked) [compound 27] is lower in responders at 10 mg/kg: 80% for the first, 77.8% for the second.

`CC1=C(C(=O)OCCOC/C=C/c2ccc(Cc3cccnc3)cc2)C(c2cccc([N+](=O)[O-])c2)C(C(=O)OC(C)C)=C(C)N1` (centres unmarked) [compound 24] and `COC(=O)C1=C(C)NC(C)=C(C(=O)OCCOC/C=C/c2ccc(Cc3cccnc3)cc2)C1c1ccccc1C(F)(F)F` (centres unmarked) [compound 26] are the same in responders at 10 mg/kg: 90% for the first, 90% for the second.

system: not listed separately; experiment: Acute toxicity, intravenous, mice; conditions: mouse, in vivo, mice (ICR, male, 4 weeks old, 5 per group)

`CC1=C(C(=O)OCCN(C)C/C=C/c2ccc(Cn3ccnc3)cc2)C(c2cccc([N+](=O)[O-])c2)C(C(=O)OC(C)C)=C(C)N1` (centres unmarked) [compound 9] and `CCOC(=O)C1=C(C)NC(C)=C(C(=O)OCCCCOC/C(C)=C/c2ccc(Cc3cccnc3)cc2)C1c1cccc([N+](=O)[O-])c1` (centres unmarked) [compound 30] cannot be ordered by LD50: no less than 30 mg/kg for the first, no less than 50 mg/kg for the second.

In the case of `CCOC(=O)C1=C(C)NC(C)=C(C(=O)OCCOC/C(C)=C/c2ccc(Cc3cccnc3)s2)C1c1cccc([N+](=O)[O-])c1` (centres unmarked) [compound 21], the LD50 is reported as no less than 75 mg/kg.
